{"source": "patent US20230235327A1", "about": "“A DBAIT MOLECULE IN COMBINATION WITH KRAS INHIBITOR FOR THE TREATMENT OF CANCER” (ONXEO, priority 2020, published 2023)", "type_in_all_cases": "cell-based", "key": {"[1]": {"test_system": "MIA PaCa-2 cells", "test": "Selection of resistant populations, cell survival by cell counting", "settings": "MIA PaCa-2, continuous 1 μM", "procedure": "(§1) Cells were grown according to the supplier's instructions and maintained at 37° C. in a humidified atmosphere at 5% CO2. Medium was renewed twice a week and cells were passed when the confluence reached 70-80% depending on cell lines. Each cell line was generally kept in passage for no more than 2 months.\n(§2) At least 3 to 6 independent populations were treated for each condition. Drugs were renewed twice a week to maintain a high pressure of resistance selection. Cells were harvested, washed and counted approximately ones a week after staining with 0.4% trypan blue (Sigma Aldrich, Saint-Louis, USA) using an automated cell counter (EVE™-Nanoentek)."}, "[2]": {"test_system": "NCI-H23 cells", "test": "Selection of resistant populations, cell growth by cell counting under continuous treatment", "procedure": "as §1, with “Cell cultures were performed with non-small cell lung (NSCLC) cancer cell line NCI-H23, a KRAS^G12C mutant cell line (heterozygous mutation). The NCI-H23 cell line was purchased from the ATCC. Cells” for “Cells”\nas §2\nCells were seeded in T75 flasks with 5.10^5 cells per flask and incubated 24 hours at 37° C. before addition of AMG-510 (20 μM) with or without AsiDNA (doses ranging from 100 nM to 2500 nM). AsiDNA was added either concomitantly and continuously with the KRAS^G12C inhibitor or two weeks from the AMG-510 treatment start. At least 3 to 6 independent populations were treated for each condition. Drugs were renewed twice a week to maintain a high pressure of resistance selection. Cells were harvested, washed and counted approximately ones a week after staining with 0.4% trypan blue (Sigma Aldrich, Saint-Louis, USA) using an automated cell counter (EVE™-Nanoentek)."}, "[3]": {"test_system": "NCI-H23 cells", "test": "βgal staining (senescence detection)", "procedure": "Slow cycling/senescent drug-tolerant cells were identified using Senescence detection kit according to the manufacturer instructions (Abcam; ab65351). Briefly, cells were seeded in 12-well culture plates and incubated overnight at 37° C. Cells were then washed twice with PBS, fixed during 10 minutes with 0.5 ml of Fixative solution at room temperature, washed twice with PBS and then stained using 0.5 ml of the Staining solution mix overnight at 37° C. Cells are then analyzed under microscope for development of blue color."}, "[4]": {"test_system": "NCI-H23 cells", "test": "Flow cytometry of p16, p21, pPERK and transferrin receptor", "procedure": "NCI-H23 were seeded in T25 flasks at 4.105 cells per flask and then treated for 24 h with AsiDNA™ at 100 nM or 5 μM for 24 hours. For intracellular staining (pPERK and CDK p16/CDK p21, mTOR, Bcl-2 staining), cells were washed, then fixed in PBS/70% Ethanol during at least 1 hour at 4° C. Cells were then washed, permeabilized with PBS/0.2% TritonX-100 solution at RT for 30 min, and saturated with PBS/2% Bovine Serum Albumin (BSA) solution at RT for 10 min. Then, cells were washed with PBS and incubated 1 hour with respectively, FITC-conjugated anti pPERK (Biorbyt, UK, 1:120), Alexa647-conjugated anti-CDK p16 (Cell signaling, Danvers Mass., USA, 1:50), Alexa488-conjugated anti-CDK p21 (Cell signaling, Danvers Mass., USA, 1:50), Alexa488-conjugated anti-mTOR (Cell signaling, Danvers Mass., USA, 1:50), Alexa647-conjugated anti-Bcl-2 (Cell signaling, Danvers Mass., USA, 1:50) before flow cytometry analysis (Guava EasyCyte 12H, Luminex, Germany). For cell-surface receptors staining with a PE-conjugated anti-transferrin receptor antibody (Thermofisher, Waltham Mass., USA, 1:20). Stained cells were then washed with PBS and fluorescence intensities were acquired with a Guava EasyCyte 12H flow cytometer (Luminex, Germany). Data were analyzed using FlowJo software (Tree Star, CA, USA), cells were harvested and washed directly after treatment end, and then incubated for 1 hour at 4° C."}, "[5]": {"settings": "AMG-510 (20 μM) induced senescent cells vs parental cell line"}, "[6]": {"settings": "NCI-H23 residual cells under treatment vs parental"}}}
{"smiles": "C=CC(=O)N1CCN(c2nc(=O)n(-c3c(C)ccnc3C(C)C)c3nc(-c4c(O)cccc4F)c(F)cc23)[C@@H](C)C1", "note": "[AMG-510]", "values": [{"measurement": "time to emergence of acquired resistance after treatment start", "setting": "[1]", "result": "~1", "unit": "month"}, {"measurement": "resistance acquired under continuous treatment", "setting": "[2]; NCI-H23, AMG-510 20 μM or MRTX-849 1 μM alone", "result": "de-novo resistance"}, {"measurement": "time from which cells restarted to divide and entered a proliferative state", "setting": "[2]; NCI-H23, continuous AMG-510 20 μM alone", "result": "two to three"}, {"measurement": "initial sensitivity of cells to the inhibitor", "setting": "[2]; NCI-H23, continuous high dose/IC90, two first weeks of treatment", "result": "very sensitive"}, {"measurement": "β-gal positive staining, cells in a senescent state", "setting": "[3]; NCI-H23, Day 17 of treatment", "result": 50, "unit": "%"}, {"measurement": "β-gal positive staining, cells in a senescent state", "setting": "[3]; NCI-H23, Day 27 of treatment", "result": 10, "unit": "%"}, {"measurement": "β-gal positive staining, cells in a senescent state", "setting": "[3]; NCI-H23, day 10 of treatment", "result": 90, "unit": "%"}, {"measurement": "pPERK level", "setting": "[4]; [5]", "result": "increase"}, {"measurement": "transferrin receptor level", "setting": "[4]; [5]", "result": "increase"}, {"measurement": "p16 expression", "setting": "[4]; [6]", "result": "increases"}, {"measurement": "p21 expression", "setting": "[4]; [6]", "result": "increases"}]}
